Laboratory results: patent US20040116493A1, “Anti-helicobacterial agents” (priority 2000, published 2004)
In brackets after ≈: the same amount, converted by molar mass. Several values for one entry are separate records, joined by “and”; a condition that tells them apart may be missing. Equal values may be shown once.

Columns and labels:
[1] = test system: H. pylori ATCC 43504; assay: In vivo bacterial eradication test in infected mice; design: species or system mice of the ICR strain; conditions: for Bacterial eradication number / bacterial eradication % / Number of each bacterium in stomach: oral, three days; for Bacterial eradication number / bacterial eradication %: 3 samples; for Number of each bacterium in stomach: individual mice, limit of detection log 1.3; for bacterial eradication effect: 40 mg/kg
Protocol: Next, the compound of the present invention was studied as to whether or not it had bacterial eradication activity in vivo. 5-week old mice of the ICR strain from CLEA Japan, Inc. were used. These mice were infected with H. pylori ATCC 43504 (day 0). After the mice had been confirmed to be infected with H. pylori, the dose indicated in Table 3 was administered into the mice twice a day (AM 9 and PM 5) from day 20 to day 22. At day 23 which was the day after the last day of the administration, the mice were dissected and the number of bacteria within their stomachs were counted. The bacteria count measurement was conducted in the following manner. Phosphate buffer was added to the collected stomachs to prepare homogenates. These homogenates were inoculated to 7% horse blood-added agar medium to which various drugs were added in order to suppress the growth of bacteria other than the genus Helicobacter, and cultured at 37° C. for 7 days in a 10% CO2 incubator. The bacterial eradication activity was judged by detecting the presence or absence of the growth of the bacteria.

[2] = test system: Helicobacter pylori ATCC 43504; assay: Agar plate dilution method, MIC; format: cell-based; conditions: ATCC43504, 96 h; Helicobacter pylori ATCC 43504, BHI agar with 7% horse blood, 4 days
Protocol: (§1) Firstly, the thus-synthesized compound of the present invention (2) was studied for its activity in vitro. For antibacterial activity, an agar plate dilution method was employed. The agar plate dilution method is well known in the art.
(§2) Specifically, a test compound containing the compound of the present invention was dissolved into dimethylsulfoxide, and serially diluted by two fold each time with sterile distilled water to prepare an antibacterial activity sample for the test compound containing the compound of the present invention. A BHI (Brain Heart Infusion) agar with 7% horse blood was used as medium for investigation of the antibacterial activity against H. pylori and H. felis. 1 ml of the sample of the compound of the present invention was added to 9 ml of the medium, followed by mixing to prepare an agar plate for measuring the antibacterial activity. MH (Mueller Hinton) agar medium was used to investigate the antibacterial activities against Pseudomonas aeruginosa, Escherichia coli, Klebsiella pneumoniae, and Staphylococcus aureus; and 10% horse serum-added MH agar medium was used to investigate the antibacterial activities against Streptococcus pneumoniae and Enterococcus faecalis. In both cases, agar plates for measuring the antibacterial activities are prepared in a manner similar to that for H. pylori and H. felis. For H. pylori and H. felis out of the bacteria to be subjected to the tests, 1 ml of each frozen bacterium stock solution was inoculated to 9 ml of 7% bovine fetal serum-added BHI liquid medium, and cultured at 37° C. for 48 hours in a 10% CO2 incubator. Each culture bacterium solution was prepared with the same medium to 10^6 CFU/ml (colony formation unit/milliliter). 5 μl of the prepared bacterium solution was inoculated to the antibacterial activity measuring agar medium, and cultured at 37° C. for 4 days in a 10% CO2 incubator. MH liquid medium was used for Pseudomonas aeruginosa, Escherichia coli, Klebsiella pneumoniae, and Staphylococcus aureus; and 10% horse serum-added MH liquid medium was used for Streptococcus pneumoniae and Enterococcus faecalis. In both cases, 1 ml of each frozen bacterium stock solution was inoculated to 9 ml of the medium, and cultured at 37° C. overnight. Each culture bacterium solution was prepared with the same medium as that had been used in the incubation to 10^6 CFU/ml. 5 μl of the prepared bacterium solution was inoculated to the antibacterial activity measuring agar medium, and cultured at 37° C. overnight.
(§3) The results are represented by MIC (Minimum Inhibitory Concentration).

[3] = test system: Streptococcus pneumoniae SR-1003; assay: Agar plate dilution method, MIC; format: cell-based; conditions: SR1003; Streptococcus pneumoniae SR-1003, 10% horse serum-added MH agar, overnight
Protocol: as §1, §2, §3

[4] = test system: Helicobacter felis ATCC 49179; assay: Agar plate dilution method, MIC; format: cell-based; conditions: ATCC49179, 96 h; Helicobacter felis ATCC 49179, BHI agar with 7% horse blood, 4 days
Protocol: as §1, §2, §3

[5] = test system: Helicobacter pylori ATCC 43629; assay: Agar plate dilution method, MIC; format: cell-based; conditions: ATCC43629, 96 h; Helicobacter pylori ATCC 43629, BHI agar with 7% horse blood, 4 days
Protocol: as §1, §2, §3

[6] = test system: Helicobacter pylori SR-9043; assay: Agar plate dilution method, MIC; format: cell-based; conditions: SR9043, 96 h; Helicobacter pylori SR-9043, BHI agar with 7% horse blood, 4 days
Protocol: as §1, §2, §3

[7] = test system: Enterococcus faecalis ATCC 19433; assay: Agar plate dilution method, MIC; format: cell-based; conditions: ATCC19433; Enterococcus faecalis ATCC 19433, 10% horse serum-added MH agar, overnight
Protocol: as §1, §2, §3

[8] = test system: Staphylococcus aureus FDA 209P; assay: Agar plate dilution method, MIC; format: cell-based; conditions: FDA209P, MH agar, overnight
Protocol: as §1, §2, §3

[9] = test system: Klebsiella pneumoniae ATCC 27736; assay: Agar plate dilution method, MIC; format: cell-based; conditions: ATCC27736; Klebsiella pneumoniae ATCC 27736, MH agar, overnight
Protocol: as §1, §2
(§4) The antibacterial activity of the compound against a subject bacterium (MIC: Minimum Inhibitory Concentration) was a maximum dilution ratio at which the growth of inoculated bacteria was not observed by the unaided eye.
as §3

[10] = test system: Helicobacter pylori SS1; assay: Agar plate dilution method, MIC; format: cell-based; conditions: 96 h; Helicobacter pylori SS1, BHI agar with 7% horse blood, 4 days
Protocol: as §1, §2, §4, §3

[11] = test system: Escherichia coli NIHJ JC-2; assay: Agar plate dilution method, MIC; format: cell-based; conditions: NIHJJC2; Escherichia coli NIHJ JC-2, MH agar, overnight
Protocol: as §1, §2, §4, §3

[12] = test system: Pseudomonas aeruginosa ATCC 25619; assay: Agar plate dilution method, MIC; format: cell-based; conditions: ATCC25619; Pseudomonas aeruginosa ATCC 25619, MH agar, overnight
Protocol: as §1, §2, §4, §3

MIC [2] [µg/mL]	MIC [3] [µg/mL]	MIC [4] [µg/mL]	MIC [5] [µg/mL]	MIC [6] [µg/mL]	MIC [7] [µg/mL]	MIC [8] [µg/mL]	MIC [9] [µg/mL]	MIC [10] [µg/mL]	MIC [11] [µg/mL]	MIC [12] [µg/mL]	SMILES	Bacterial eradication number ([1]; 20 mg/kg twice a day)	bacterial eradication % ([1]; 20 mg/kg twice a day)	Number of each bacterium in stomach ([1]; 20 mg/kg twice a day)	bacterial eradication effect [1]	Bacterial eradication number ([1]; 40 mg/kg twice a day)	bacterial eradication % ([1]; 40 mg/kg twice a day)	Number of each bacterium in stomach ([1]; 40 mg/kg twice a day)	bacterial eradication effect (samples) ([1]; 20 mg/kg)
0.025 (≈ 0.0334 µM)	0.0125 (≈ 0.0167 µM)	< 0.025	0.1 (≈ 0.134 µM)	> 25	> 25	0.05 (≈ 0.0668 µM)	> 25	0.025 (≈ 0.0334 µM)	12.5 (≈ 16.7 µM)	> 25	CC[C@H]1OC(=O)[C@H](C)[C@@H](O[C@H]2C[C@@](C)(OC)[C@@H](O)[C@H](C)O2)[C@H](C)[C@@H](O[C@@H]2O[C@H](C)C[C@H](N(C)C)[C@H]2O)[C@](C)(OC)C[C@@H](C)C(=O)[C@H](C)[C@@H](O)[C@]1(C)O [Clarithromycin, clarithromycin]	0 (0)	0 (0) %	2.79 log CFU/stomach and 2.89 log CFU/stomach and 3.37 log CFU/stomach	not observed	0 (0)	0 (0) %	1.6, 1.6, log CFU/stomach (2×) and 2.38 log CFU/stomach	
2.5 (≈ 5.78 µM)						> 25			> 25	> 25	O=C1c2ccc3c4c(ccc(c24)C(=O)N1c1nccs1)C(=O)N(c1nccs1)C3=O [Compound 4]								
0.31 (≈ 0.707 µM)						> 25			> 25	> 25	CC(=O)OCCN1C(=O)c2ccc3c4c(ccc(c24)C1=O)C(=O)N(CCOC(C)=O)C3=O [Compound 6]								
12.5 (≈ 22.5 µM)						> 25			> 25	> 25	O=C1c2ccccc2C(=O)N1N1C(=O)c2ccc3c4c(ccc(c24)C1=O)C(=O)N(N1C(=O)c2ccccc2C1=O)C3=O [Compound 5]								
0.39 (≈ 0.955 µM)						> 25			> 25	> 25	CN(C)CCN1C(=O)c2ccc3c4c(ccc(c24)C1=O)C(=O)N(CCN(C)C)C3=O [Compound 7]								
0.2 (≈ 0.476 µM)	> 25	0.1 (≈ 0.238 µM)	0.2 (≈ 0.476 µM)	0.39 (≈ 0.928 µM)	> 25	> 25	> 25	0.1 (≈ 0.238 µM)	> 25	> 25	O=C1c2ccc3c4c(ccc(c24)C(=O)N1c1ccccn1)C(=O)N(c1ccccn1)C3=O [Compound 2, N,N′-bis-(2-pyridyl)naphthalene-1,4,5,8-tetracarboxylate diimide]	3	100%	<1.3, <1.3, log CFU/stomach (2×) and <1.3 log CFU/stomach					3/3
> 25	> 25	0.78 (≈ 4.56 µM)	3.13 (≈ 18.3 µM)	> 25	> 25	> 25	> 25	0.78 (≈ 4.56 µM)	> 25	> 25	Cc1ncc([N+](=O)[O-])n1CCO [Metronidazole, metronidazole]								
6.25 (≈ 21.2 µM)						> 25			> 25	> 25	CN1C(=O)c2ccc3c4c(ccc(c24)C1=O)C(=O)N(C)C3=O [Compound 3]								
0.025 (≈ 0.0684 µM)	0.05 (≈ 0.137 µM)	0.1 (≈ 0.274 µM)	0.1 (≈ 0.274 µM)	0.39 (≈ 1.07 µM)	0.39 (≈ 1.07 µM)	0.05 (≈ 0.137 µM)	0.2 (≈ 0.547 µM)	0.39 (≈ 1.07 µM)	6.25 (≈ 17.1 µM)	> 25	CC1(C)S[C@@H]2[C@H](NC(=O)[C@H](N)c3ccc(O)cc3)C(=O)N2[C@H]1C(=O)O [Amoxicillin, amoxicillin]	1	33%	1.60 log CFU/stomach and < 1.3 log CFU/stomach	not observed	2	67%	<1.3, <1.3, log CFU/stomach (2×) and 1.78 log CFU/stomach	

SMILES	MIC [2] [µg/mL]	MIC [3] [µg/mL]	MIC [4] [µg/mL]	MIC [5] [µg/mL]	MIC [6] [µg/mL]	MIC [7] [µg/mL]	MIC [8] [µg/mL]	MIC [9] [µg/mL]	MIC [10] [µg/mL]	MIC [11] [µg/mL]	MIC [12] [µg/mL]	Bacterial eradication number ([1]; 20 mg/kg twice a day)	bacterial eradication % ([1]; 20 mg/kg twice a day)	Number of each bacterium in stomach ([1]; 20 mg/kg twice a day)	bacterial eradication effect [1]	Bacterial eradication number ([1]; 40 mg/kg twice a day)	bacterial eradication % ([1]; 40 mg/kg twice a day)	Number of each bacterium in stomach ([1]; 40 mg/kg twice a day)	bacterial eradication effect (samples) ([1]; 20 mg/kg)
CN(C)[C@@H]1C(O)=C(C(N)=O)C(=O)[C@@]2(O)C(O)=C3C(=O)c4c(O)cccc4[C@@](C)(O)[C@H]3C[C@@H]12 [Tetracycline, tetracycline]								3.13 (≈ 7.04 µM)		1.56 (≈ 3.51 µM)	> 25								
